In US12686676B2, “Compound, endothelin-A receptor antagonist, and pharmaceutical composition” (Alchemedicine, Inc., priority 2021, dated 2026):

Assays:
CYP2C9 = biological target: T1, CYP2C9 (Homo sapiens, UniProt P11712); assay: CYP2C9 inhibitory effect (liver microsome fraction, diclofenac substrate); format: in vitro ADME; details: liver microsome fraction 0.5 mg/mL, diclofenac 2.5 μM
T1 construct: A frozen liver microsome fraction was thawed on ice; from tissue; host or cells: liver microsome fraction
T1 sequence (P11712 whole entry): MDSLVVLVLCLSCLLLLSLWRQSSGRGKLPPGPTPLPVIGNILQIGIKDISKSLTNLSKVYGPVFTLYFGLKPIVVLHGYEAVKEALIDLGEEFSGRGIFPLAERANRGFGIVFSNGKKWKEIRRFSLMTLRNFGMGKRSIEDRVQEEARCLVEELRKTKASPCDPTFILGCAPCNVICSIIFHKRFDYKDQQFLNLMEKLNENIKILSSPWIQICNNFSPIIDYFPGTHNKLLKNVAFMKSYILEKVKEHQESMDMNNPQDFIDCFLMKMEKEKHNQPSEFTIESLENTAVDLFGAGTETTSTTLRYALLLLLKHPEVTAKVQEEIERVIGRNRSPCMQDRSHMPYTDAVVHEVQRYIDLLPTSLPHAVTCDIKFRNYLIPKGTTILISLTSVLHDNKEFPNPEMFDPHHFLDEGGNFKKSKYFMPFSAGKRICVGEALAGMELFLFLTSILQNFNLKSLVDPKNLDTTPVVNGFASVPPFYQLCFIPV
Procedure: The inhibitory effect on CYP2C9 was evaluated by the following method. • (1) A frozen liver microsome fraction was thawed on ice and diluted with a potassium phosphate buffer (PPB) to a final concentration of 0.5 mg/mL. • (2) A substrate for evaluation (diclofenac: D6899 from Sigma-Aldrich Co. LLC) was added thereto such that its final concentration was 2.5 μM. • (3) The mixture was slowly mixed and incubated at 37±1° C. for 5 minutes to prepare a reaction solution. • (4) 801 μL of the reaction solution was dispensed to each tube, and an evaluation compound serially diluted with 0.9 μL of DMSO was added thereto such that its final concentration was 9.1 to 20000 nM (⅓ dilutions with 8 concentrations). In this context, 0.9 μL of DMSO was added to a negative control group, and 0.9 μL of sulfaphenazole (S0758 from Sigma-Aldrich Co. LLC) adjusted to a final concentration of 1 μM with DMSO was added to a positive control group. • (5) After mixing, a 270 μL aliquot was transferred to each of two fresh tubes and incubated in a shaking water bath at 37±1° C. for 5 minutes. • (6) Reaction was started by the addition of 30 μL of 10 mM NADPH, and the tubes were incubated at 37° C.±1° C. for 10 minutes. • (7) The tubes were taken out of the shaking water bath, and the reaction was terminated by the addition of 300 μL of a reaction stop solution. After mixing, the tubes were centrifuged at 1021×g at 4° C. for 20 minutes. • (8) The amount of the substrate for evaluation metabolized was determined by LC-MS/MS to calculate the rate of inhibition at each concentration of the evaluation compound. • (9) IC50 values were calculated using GraphPad Prism5. A sample having an IC50 value of 1 μM or lower was given “++”; a sample having an IC50 value in the range of higher than 1 μM and 10 μM or lower was given “+”; and a sample having an IC50 value of higher than 10 μM was given “−”.

[1] = Metabolic stability in human liver microsome; format: in vitro ADME; details: after 30 minutes with NADPH; also: tested at 0.99 µM
Procedure: The metabolic stability in a human liver microsome was evaluated by the following method.
• (1) Human liver microsome: 20 mg/mL • (2) Test compound: 1.1 mM solution in DMSO • (3) Potassium phosphate buffer solution: 66.7 mM (pH 7.4) • (4) NADPH solution: 10 mM in a potassium phosphate buffer solution • (5) Quenching solution: 0.5% formic acid solution in acetonitrile containing warfarin as an internal standard 2. Method
971.5 μL of the potassium phosphate buffer solution and 27.5 μL of the human liver microsome were placed in a propylene tube and suspended. 1 μL of the test compound was added thereto, and a 180 μL aliquot of this mixture was transferred to a fresh tube. The mixture was preincubated at 37° C. for 5 minutes. Then, 20 μL of the NADPH solution (for an incubation time of 30 minutes) or 20 μL of the potassium phosphate buffer solution (for an incubation time of 0 minutes) was added thereto. After incubation, the reaction was terminated by the addition of 200 μL of the quenching solution. Subsequently, the tube was centrifuged at 3220×g for 20 minutes, and the concentration of an unchanged form of the test compound in […] of a supernatant was measured by LC-MS/MS. On the basis of the obtained peak area of the unchanged form, the residual rate (%) of the unchanged form was calculated using the rate of 0 minutes of incubation time as 100%.

[2] = tested on: BigET-1-induced blood pressure; assay: BigET-1-induced blood pressure evaluation test; format: in vivo, Wistar rat; details: 30 mg/kg into the duodenum 1 hour before BigET-1 (20 μg/kg); Mean ± SD, N = 6
Procedure: Each 8- to 20-week-old male Wistar rat was subjected to tracheal catheter treatment for airway management, carotid catheter treatment for blood pressure measurement, femoral venous catheter treatment for BigET-1 administration, and duodenal catheter treatment for test substance administration under analgetic treatment and urethane anesthesia. After confirmation that the blood pressure and the heart rate became stable, a vehicle (0.5% methylcellulose 400 solution) or 30 mg/kg (5 ml/kg) of a test substance adjusted with a vehicle was administered into the duodenum. One hour thereafter, BigET-1 (20 μg/kg) was administered thereto, and the blood pressure was monitored until 60 minutes after BigET-1 administration. The test was conducted at n=6 per group. In analysis, systolic blood pressure and diastolic blood pressure were determined for 20 seconds every 5 minutes from 5 minutes before BigET-1 administration to 60 minutes after BigET-1 administration, and AUC0-60 min (mmHg*min) for 60 minutes after BigET-1 administration was calculated using a delta value from the value obtained 5 minutes before BigET-1 administration. The Student's t test was used for the comparison of AUC between the vehicle administration group and the test substance administration group.

Row | SMILES | IC50 (CYP2C9) [µM] | Metabolic stability (human), residual rate of the unchanged form [1] [%] | Diastolic blood pressure delta AUC0-60 min [2] [mmHg*min] | Systolic blood pressure delta AUC0-60 min [2] [mmHg*min]
1 | Cc1onc(NS(=O)(=O)c2cccnc2C#Cc2ccc3c(c2)COC3)c1C [Example 5, 2-((1,3-Dihydroisobenzofuran-5-yl)ethynyl)-N-(4,5-dimethylisoxazol-3-yl)pyridine-3-sulfonamide] | > 10 | 63 |  | 
2 | Cc1cc2c(cc1C#Cc1ncccc1S(=O)(=O)Nc1onc(C)c1C)C(C)(C)OC2 [Example 8, N-(3,4-Dimethylisoxazol-5-yl)-2-((3,3,6-trimethyl-1,3-dihydroisobenzofuran-5-yl)ethynyl)pyridine-3-sulfonamide] | > 10 | 73 |  | 
3 | Cc1cc2c(cc1C#Cc1ncccc1S(=O)(=O)Nc1onc(C)c1Cl)C(C)(C)OC2 [Example 9, N-(4-Chloro-3-methylisoxazol-5-yl)-2-((3,3,6-trimethyl-1,3-dihydroisobenzofuran-5-yl)ethynyl)pyridine-3-sulfonamide] | 1 to 10 | 28 |  | 
4 | COc1nc(C)cnc1NS(=O)(=O)c1cccnc1C#Cc1cc2c(cc1C)COC2(C)C [Example 10, N-(3-Methoxy-5-methylpyrazin-2-yl)-2-((3,3,6-trimethyl-1,3-dihydroisobenzofuran-5-yl)ethynyl)pyridine-3-sulfonamide] | > 10 | 66 |  | 

More lines, main results first:

Row | IC50 (CYP2C9) [µM] | Metabolic stability (human), residual rate of the unchanged form [1] [%] | SMILES | Diastolic blood pressure delta AUC0-60 min [2] [mmHg*min] | Systolic blood pressure delta AUC0-60 min [2] [mmHg*min]
5 | > 10 | 59 | Cc1cc2c(cc1C#Cc1ncccc1S(=O)(=O)Nc1noc(C)c1C)C(C)(C)OC2 [Example 1, N-(4,5-Dimethylisoxazol-3-yl)-2-((3,3,6-trimethyl-1,3-dihydroisobenzofuran-5-yl)ethynyl)pyridine-3-sulfonamide] | 278 ± 539 | 83 ± 508
6 | > 10 | 47 | Cc1cc2c(cc1C#Cc1ncccc1S(=O)(=O)Nc1noc(C)c1C)COC2 [Example 3, N-(4,5-Dimethylisoxazol-3-yl)-2-((6-methyl-1,3-dihydroisobenzofuran-5-yl)ethynyl)pyridine-3-sulfonamide] | 322 ± 435 | 113 ± 565
7 | > 10 | 49 | Cc1cc2c(cc1C#Cc1ncccc1S(=O)(=O)Nc1noc(C)c1C)C(=O)OC2 [Example 4, N-(4,5-Dimethylisoxazol-3-yl)-2-((6-methyl-3-oxo-1,3-dihydroisobenzofuran-5-yl)ethynyl)pyridine-3-sulfonamide] |  | 
8 | 1 to 10 | 56 | Cc1onc(NS(=O)(=O)c2cccnc2C#Cc2cc3c(cc2Cl)COC3)c1C [Example 6, 2-((6-Chloro-1,3-dihydroisobenzofuran-5-yl)ethynyl)-N-(4,5-dimethylisoxazol-3-yl)pyridine-3-sulfonamide] |  | 
9 | 1 to 10 | 44 | Cc1cc2c(cc1C#Cc1ncccc1S(=O)(=O)Nc1noc(C)c1Cl)C(C)(C)OC2 [Example 7, N-(4-Chloro-5-methylisoxazol-3-yl)-2-((3,3,6-trimethyl-1,3-dihydroisobenzofuran-5-yl)ethynyl)pyridine-3-sulfonamide] |  | 
